# Measured values: PMC12029836, “Phytotoxicity, Cytotoxicity, and Antimicrobial Activity of Triethanolammonium Amino Acids Salts” (Molecules, 2025)
# Values joined by “and” are separate entries in the source; they are usually repeats but may differ in a detail not shown here. Identical values can stand only once. Like-named read-outs stand apart in the source and are kept apart here.
# Experiments:
# [1] = tested on: L929 fibroblasts; assay: Mammalian cell cytotoxicity screening, resazurin viability; format: cell-based, mouse
# [2] = tested on: Lepidium sativum L. seeds; settings: 24 h incubation, mean(±SD), n = 3
# [3] = tested on: Lepidium sativum L. roots; settings: 24 h incubation, mean(±SD), n = 3
# [4] = tested on: C. albicans ATCC 10231; assay: Antimicrobial activity, broth microdilution MIC/MBC; format: cell-based, Candida albicans; settings: C. albicans ATCC 10231, 24 h at 37 °C, at least 90% growth inhibition; nd—not detected
# [5] = 0.01% (w/w) compound in the medium
# [6] = 0.03% (w/w) compound in the medium
# [7] = 0.05% (w/w) compound in the medium
# [8] = 0.10% (w/w) compound in the medium
# [9] = 0.30% (w/w) compound in the medium
# [10] = 0.50% (w/w) compound in the medium
# [11] = 1.00% (w/w) compound in the medium
# [12] = 2.00% (w/w) compound in the medium
# [13] = 3.00% (w/w) compound in the medium
# [14] = 4.00% (w/w) compound in the medium
# [15] = 5.00% (w/w) compound in the medium
SMILES,"Inhibition of the Lepidium sativum seeds germination (ISG, %) [2, 5]","Inhibition of the Lepidium sativum seeds germination (ISG, %) [2, 6]","Inhibition of the Lepidium sativum seeds germination (ISG, %) [2, 7]","Inhibition of the Lepidium sativum seeds germination (ISG, %) [2, 8]","Inhibition of the Lepidium sativum seeds germination (ISG, %) [2, 9]","Inhibition of the Lepidium sativum seeds germination (ISG, %) [2, 10]","Inhibition of the Lepidium sativum seeds germination (ISG, %) [2, 11]","Inhibition of the Lepidium sativum seeds germination (ISG, %) [2, 12]","Inhibition of the Lepidium sativum seeds germination (ISG, %) [2, 14]","Inhibition of the Lepidium sativum seeds germination (ISG, %) [2, 15]","Inhibition of the root growth in pregerminated Lepidium sativum seeds (IRG, %) [3, 5]","Inhibition of the root growth in pregerminated Lepidium sativum seeds (IRG, %) [3, 6]","Inhibition of the root growth in pregerminated Lepidium sativum seeds (IRG, %) [3, 7]","Inhibition of the root growth in pregerminated Lepidium sativum seeds (IRG, %) [3, 9]","Inhibition of the root growth in pregerminated Lepidium sativum seeds (IRG, %) [3, 10]","Inhibition of the root growth in pregerminated Lepidium sativum seeds (IRG, %) [3, 11]","Inhibition of the root growth in pregerminated Lepidium sativum seeds (IRG, %) [3, 12]","Inhibition of the root growth in pregerminated Lepidium sativum seeds (IRG, %) [3, 13]","Inhibition of the root growth in pregerminated Lepidium sativum seeds (IRG, %) [3, 14]","Inhibition of the root growth in pregerminated Lepidium sativum seeds (IRG, %) [3, 15]",other results
CC(C)C[C@H](N)C(=O)O.OCCN(CCO)CCO [[TEA][Leu]],0.0(±1.9) %,0.0(±1.9) %,5.7(±0.5) %,6.6(±0.9) %,7.5(±2.1) %,11.3(±0.8) %,15.1(±1.6) %,32.1(±0.1) %,84.9(±2.5) %,100(±0.1) %,0.0(±0.0) %,8.9(±2.5) %,10.5(±2.1) %,30.0(±1.9) %,39.9(±1.5) %,53.0(±1.0) %,67.9(±0.9) %,71.6(±0.8) %,88.7(±0.7) %,94.7(±0.5) %,"ED20 ([1]; 24h exposure): 0.23±0.02%; ED50 ([1]; 24h exposure): 0.51±0.22%; ED80 ([1]; 24h exposure): 0.93±0.07%; ED20 ([1]; 48h exposure): 0.21±0.01%; ED50 ([1]; 48h exposure): 0.51±0.01%; ED80 ([1]; 48h exposure): 0.82±0.03%; Inhibition of the Lepidium sativum seeds germination (ISG, %) [2, 13]: 58.5%; Inhibition of the root growth in pregerminated Lepidium sativum seeds (IRG, %) [3, 8]: 20.3(±1.7) %"
N[C@@H](Cc1ccccc1)C(=O)O.OCCN(CCO)CCO [[TEA][Phe]],0.0(±0.0) %,0.0(±0.0) %,0.9(±0.8) %,1.8(±0.9) %,3.5(±1.7) %,5.3(±0.8) %,8.8(±1.3) %,10.5(±0.8) %,22.8(±2.4) %,86.0(±2.1) %,23.6%,24.4(±2.0) %,28.5(±2.0) %,48.1(±1.7) %,53.1(±1.3) %,60.2(±1.4) %,69.6(±1.1) %,78.3(±0.9) %,83.5(±0.9) %,92.1(±0.6) %,"ED20 ([1]; 24h exposure): 0.37±0.04%; ED50 ([1]; 24h exposure): 0.72±0.07% and 0.72%; ED80 ([1]; 24h exposure): 1.20±0.19%; ED20 ([1]; 48h exposure): 0.38±0.04%; ED50 ([1]; 48h exposure): 0.63±0.04%; ED80 ([1]; 48h exposure): 0.91±0.14%; Inhibition of the root growth in pregerminated Lepidium sativum seeds (IRG, %) [3, 8]: 44.2(±1.6) %"
N[C@@H](Cc1c[nH]cn1)C(=O)O.OCCN(CCO)CCO [[TEA][His]],0.0(±0.0) %,1.9(±0.5) %,3.7(±0.9) %,5.6(±0.5) %,7.4(±0.5) %,9.3(±0.5) %,12.0(±1.4) %,14.8(±0.9) %,27.8(±2.8) %,74.1(±0.5) %,1.1(±2.2) %,12.9(±2.1) %,15.7(±2.2) %,28.6%,37.1(±2.0) %,48.6(±1.6) %,62.9(±1.2) %,72.9(±0.9) %,80.0(±0.8) %,84.3(±0.7) %,"MIC (%) [4]: 2.50%; Inhibition of the Lepidium sativum seeds germination (ISG, %) [2, 13]: 25.9(±1.2) %; Inhibition of the root growth in pregerminated Lepidium sativum seeds (IRG, %) [3, 8]: 22.1(±2.1) %"
NC(=O)CCC(N)C(=O)O.OCCN(CCO)CCO (stereo not shown) [[TEA][Gln]],0.0(±0.0) %,0.0(±0.0) %,0.0(±0.0) %,1.7(±2.2) %,9.2(±1.3) %,15.0(±0.5) %,20.8(±2.6) %,38.1(±2.1) %,86.7(±1.3) %,,13.0(±2.0) %,20.7(±1.8) %,21.0(±2.2) %,50.5%,63.6(±1.3) %,72.9(±0.9) %,78.1(±1.0) %,85.2(±0.9) %,92.4(±0.5) %,93.6(±0.5) %,"Inhibition of the Lepidium sativum seeds germination (ISG, %) [2, 13]: 53.8(±2.5) %; Inhibition of the root growth in pregerminated Lepidium sativum seeds (IRG, %) [3, 8]: 26.9(±1.8) %"
CCC(C)C(N)C(=O)O.OCCN(CCO)CCO [[TEA][Ile]],0.0(±1.9) %,0.0(±1.4) %,0.0(±0.8) %,0.0(±0.5) %,3.6(±2.2) %,5.4(±0.5) %,17.9(±2.6) %,23.2(±0.9) %,39.3(±2.1) %,80.4(±1.3) %,2.9(±1.7) %,27.8(±1.4) %,31.4(±1.9) %,34.6(±1.6) %,36.9(±1.6) %,56.9(±1.2) %,70.9(±1.0) %,72.5(±0.7) %,77.5(±0.6) %,80.4(±0.3) %,"Inhibition of the Lepidium sativum seeds germination (ISG, %) [2, 13]: 26.8(±0,9) %; Inhibition of the root growth in pregerminated Lepidium sativum seeds (IRG, %) [3, 8]: 35.1(±1.5) %"
CSCC[C@H](N)C(=O)O.OCCN(CCO)CCO [[TEA][Met]],0.0(±0.2) %,0.0(±0.1) %,0.0(±0.1) %,0.0(±0.1) %,0.0(±0.0) %,1.9(±1.3) %,3.7(±0.5) %,7.4(±0.9) %,29.6(±0.8) %,37.0(±2.5) %,0.0(±0.0) %,0.0(±0.0) %,0.0(±0.0) %,22.8(±3.3) %,30.1(±3.8) %,52.1(±2.2) %,60.7(±2.0) %,64.9(±1.4) %,77.4(±1.3) %,77.8(±0.9) %,ED20 ([1]; 24h exposure): 0.08±0.01%; ED50 ([1]; 24h exposure): 0.29±0.02% and 0.29%; ED80 ([1]; 24h exposure): 0.74±0.08%; ED20 ([1]; 48h exposure): 0.09±0.01%; ED50 ([1]; 48h exposure): 0.31±0.02%; ED80 ([1]; 48h exposure): 0.78±0.06%; MIC (%) [4]: 5.00%
